For experiment [1], the target named is T1, MELK (Homo sapiens, UniProt Q14680). Nature of the experiment: Z′-LYTE biochemical assay, MELK inhibition. The arrangement: purchased Life Technologies. To be noted: 25 uM ATP concentration; read-out: MELK IC50 as determined by Z′-LYTE biochemical assay. The protocol:
The invention also provides methods for inhibiting MELK, comprising contacting MELK with a compound of the invention in an amount effective to inhibit MELK. In certain embodiments, the method is conducted in vitro. In certain embodiments, the method is conducted in vivo. Inhibition of MELK can be determined by the Z′-LYTE® biochemical assay from Life Technologies (Life Technologies Z′-LYTE® Screening Protocol and Assay Conditions, June 2012, incorporated herein by reference).
Generally, IC50 against MELK was determined by Z′-LYTE® biochemical assay and are measured in nM at 25 uM ATP concentration.

Experiment [2] has as its target T1, MELK. Nature of the experiment: Electrophoretic mobility (auto-phosphorylation) of MELK in nocodazole-arrested mitotic cells, immunoblotting. The experiment is classed as cell-based. To be noted: nocodazole-arrested mitotic cells (HeLa, MDA-MB-231), 30 min, increasing concentration. How it is done:
[…] assays were performed with recombinant protein of the indicated mitotic kinase (left) and AMPK family kinases (right) in the presence of THZ-4-63-1. […] Cells were treated with nocodazole (100 ng/ml) for 18 h or not treated (Asyn., asynchronous). Nocodazole-arrested mitotic cells (M) were isolated via shake-off. The attached cells enriched in G2 phase (G2) were harvested. A portion of the mitotic cells were washed off nocodazole and released into G1 phase after 4 hours of incubation (G1). […] In Panel D, mitotic lysates were prepared from the indicated cells, and treated with λ-phosphatase at 30° C. In Panel E, nocodazole-arrested mitotic cells were treated with increasing concentration of THZ-4-63-1 for 30 min. Cell lysates were subjected to immunoblotting.
(§1) Cell lysates were subjected to immunoblotting. […] The fluorescent signals of immunblotting were quantified using Image Studio Lite software (Licor Biosciences, Lincoln, Neb.). The signal of phosphorylated Aurora kinases was normalized to that of loading control (α-tubulin).
(§2) We next proceeded to test if THZ-4-63-1 inhibits MELK activity in vivo. With a lack of established kinase substrates of MELK during mitosis, we used the auto-phosphorylation of MELK as a surrogate to indicate the activity of MELK. […] We then harvested nocodazole-arrested mitotic cells, and treated cells with increasing concentrations of THZ-4-63-1.
(Immunoblotting shows a protein as a band on a membrane.)

The test system of a further experiment is Aurora kinases. Nature of the experiment: Aurora kinase phosphorylation in mitotic cells, immunoblotting. To be noted: 30 min. The class given is cell-based. The protocol: as §1
Cell lysates were prepared for immunoblotting. In Panels B and C, THZ-4-63-1 inhibits H3T3 phosphorylation in HeLa (B) and U2OS (C) cells. Nocodazole arrested mitotic cells were treated with THZ-4-63-1 at the indicated doses for 30 min. […] Cell lysates were subjected to immunblotting. The signal of H3T3 phosphorylation was normalized to that of α-tubulin (right).
as §2
We exposed paclitaxel- or nocodazole-arrested mitotic cells to the individual inhibitor for 30 min in the presence of MG132, and collected lysates for examining signaling involved in chromosome alignment. […] Recent studies unravel a novel role of Aurora B in phosphorylating Haspin^7, a major factor responsible for phosphorylating Histone H3 at Thr3^14. […]

Experiment [3] relates to Histone H3 phosphorylation at Thr3. Kind of experiment: Histone H3 Thr3 phosphorylation in arrested mitotic cells, immunoblotting. The class given is cell-based. The conditions noted are these: paclitaxel- or nocodazole-arrested mitotic cells, 30 min, with MG132. The protocol:
Cell lysates were prepared for immunoblotting. […] HeLa cells were treated with DMSO or THZ-4-63-1 (5 μM) for 4 h followed by 1 h treatment of MG132 (10 μM). Cells were fixed and stained with anti-H3T3ph and anti-CREST. […] Cells were treated as in FIG. 2, Panel D, and additionally treated with MG132 (10 μM) for 1 h before fixation. The histogram indicates the quantification of H3S10ph signal. […] MCF-10A cells stably expressing empty vector (EV) or MELK were fixed for immunostaining. Images were captured with identical exposure time. H3T3ph intensity was quantified by the use of ImageJ. […] Recombinant MELK protein (kinase domain) was incubated with recombinant Histone H3 for 30 min at 30° C. Samples were subjected to immunoblotting using the indicated antibodies. […] Cells stably expressing GFP-MELK were fixed by formaldehyde and stained with anti-H3S10ph. […] Asynchronized (Async.) or nocodazole-arrested mitotic cells were subjected to fractionation, with sample prepared for immunoblotting. Panels H and I are images showing that MELK inhibition impairs the localization of chromosome passenger complex (CPC), indicated by the immunofluorescence detecting Survivin (G) and Aurora B (H). In addition to the presence of doxycyclin or THZ-4-63-1, cells were treated with nocodazole (0.33 μM) and MG132 (10 μM) for 3 h before fixation.
Cell lysates were prepared for immunoblotting. […]

The subject of the next experiment is MDA-MB-468. Kind of experiment: Cell growth with paclitaxel combination in MDA-MB-468. The class given is cell-based, human. To be noted: 2 nM. The protocol:
Mitotic cells were treated with THZ-4-63-1 at indicated concentrations for 4 h. Cells were collected for immunoblotting. Panel B contains time-lapse images of U2OS-(H2B-GFP) cells treated with THZ-4-63-1 (5 μM). […] Panel C contains blots showing proteasome-mediated degradation of Cyclin B1, Aurora B and MELK in THZ-4-63-1-induced mitotic slippage. Mitotic cells were treated as in Panel A with THZ-4-63-1 (5 μM), or MG132 (10 μM), or both for 4 h. Panel D contains a graph showing quantification of cell proliferation in the indicated breast cancer cell lines, which were treated with vehicle control or THZ-4-63-1 for one week (Top) and also contains bright-field images acquired from control cells or cells treated with THZ-4-63-1 (111 nM) (Bottom). […] Cells were treated with indicated drugs, and harvested in ten days for quantification of cell growth. The bold curve depicts the theoretic prediction of an additive action between paclitaxel and THZ-4-63-1.
Because microtubule-targeting chemotherapy is the mainstay of treatment for many types of cancer including basal-like breast cancer, we asked if MELK inhibition could combine with drugs that impair microtubule dynamics. […]

SMILES strings stand for the structures.

One may read the IC50 as the midpoint of a concentration-inhibition curve.

T1 sequence (Q14680 whole entry): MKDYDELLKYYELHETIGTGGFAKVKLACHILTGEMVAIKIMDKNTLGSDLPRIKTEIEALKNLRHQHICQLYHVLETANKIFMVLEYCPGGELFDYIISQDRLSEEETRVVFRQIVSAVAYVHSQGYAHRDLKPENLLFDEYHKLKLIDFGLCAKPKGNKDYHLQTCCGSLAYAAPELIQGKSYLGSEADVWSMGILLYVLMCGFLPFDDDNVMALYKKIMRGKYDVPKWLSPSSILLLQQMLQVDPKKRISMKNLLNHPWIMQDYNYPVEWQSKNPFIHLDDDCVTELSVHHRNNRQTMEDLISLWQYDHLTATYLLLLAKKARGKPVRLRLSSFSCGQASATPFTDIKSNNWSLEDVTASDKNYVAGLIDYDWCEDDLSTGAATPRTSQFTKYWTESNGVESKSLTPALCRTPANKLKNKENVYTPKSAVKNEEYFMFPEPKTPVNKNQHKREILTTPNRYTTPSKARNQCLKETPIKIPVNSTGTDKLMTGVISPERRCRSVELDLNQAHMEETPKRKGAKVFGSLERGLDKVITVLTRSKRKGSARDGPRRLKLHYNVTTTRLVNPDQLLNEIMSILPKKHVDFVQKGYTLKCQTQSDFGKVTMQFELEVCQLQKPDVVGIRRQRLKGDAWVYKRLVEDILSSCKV

With `O=c1ccc2cnc3ccc(-c4cc(Cl)c(O)c(Cl)c4)cc3c2n1-c1ccc(N2CCNCC2)c(C(F)(F)F)c1` [Compound 01-045], the half-maximal inhibitory concentration (IC50) on MELK [1] turned out to be 7.63 nM.
For `CC(=O)N1CCN(c2ccc(-n3c(=O)ccc4cnc5ccc(-c6cc(Cl)c(O)c(Cl)c6)cc5c43)cc2C(F)(F)F)CC1` [Compound 01-071], the IC50 on MELK [1] turned out to be 294 nM.
For the compound `CN(C)C[C@H]1CC[C@H](n2c(=O)ccc3cnc4ccc(-c5cc(Cl)c(O)c(Cl)c5)cc4c32)CC1` [Compound 01-087, 9-(3,5-dichloro-4-hydroxyphenyl)-1-(trans-4-((dimethylamino)methyl)cyclohexyl)benzo-[h][1,6]naphthyridin-2(1H)-one], the IC50 on MELK [1] was found to be 9.6 nM.
Same read-out and setting: the figure for `O=C1NCc2cnc3ccc(-c4cc(Cl)c(O)c(Cl)c4)cc3c2N1c1ccc(N2CCNCC2)c(C(F)(F)F)c1` [Compound 01-088] is 5.48 nM; for `CN(C)C[C@H]1CC[C@H](N2C(=O)NCc3cnc4ccc(-c5cc(Cl)c(O)c(Cl)c5)cc4c32)CC1` [Compound 01-091, 9-(3,5-dichloro-4-hydroxyphenyl)-1-(trans-4-((dimethylamino)methyl)cyclohexyl)-3,4-dihydropyrimido[5,4-c]quinolin-2(1H)-one] it is 10.5 nM.
Same read-out and setting: the figure for `O=c1ccc2cnc3ccc(-c4cccc(O)c4)cc3c2n1-c1ccc(N2CCNCC2)c(C(F)(F)F)c1` [Compound 01-092] is 146 nM; for `O=C1NCc2cnc3ccc(-c4cc(Cl)c(O)c(Cl)c4)cc3c2N1c1ccc(N2CCNCC2)cc1` [Compound 01-100] it is 2.16 nM.
As to `O=c1ccc2cnc3ccc(-c4ccc(CO)cc4)cc3c2n1-c1ccc(N2CCNCC2)c(C(F)(F)F)c1` [Compound 01-101], on MELK [1], the IC50 was found to be 119 nM.
On the same count and under the same terms, the figure for `CN(C)C[C@H]1CC[C@H](N2C(=O)NCc3cnc4ccc(-c5ccc(NS(C)(=O)=O)cc5)cc4c32)CC1` [Compound 01-131] is 4990 nM; for `CN(C)Cc1ccc(N2C(=O)NCc3cnc4ccc(-c5cc(Cl)c(O)c(Cl)c5)cc4c32)cc1` [Compound 01-144] it is 9.4 nM; for `CN(C)CC1CCC(CN2C(=O)NCc3cnc4ccc(-c5cc(Cl)c(O)c(Cl)c5)cc4c32)CC1` (stereo not drawn) [Compound 02-020] it is 404 nM.
In the case of `CN(C)C[C@H]1CC[C@H](n2c(=O)[nH]c3cnc4ccc(-c5cc(Cl)c(O)c(Cl)c5)cc4c32)CC1` [Compound 02-022, 8-(3,5-dichloro-4-hydroxyphenyl)-1-(trans-4-((dimethylamino)methyl)cyclohexyl)-1,3-dihydro-2H-imidazo[4,5-c]quinolin-2-one], the IC50 at MELK [1] amounted to 1.85 nM.
The same measure, in the same setting: with `CN1CCC(CN2C(=O)NCc3cnc4ccc(-c5cc(Cl)c(O)c(Cl)c5)cc4c32)CC1` [Compound 02-029] the figure was 386 nM; with `CN(C)C[C@H]1CC[C@H](n2c(=O)n(C)c3cnc4ccc(-c5cc(Cl)c(O)c(Cl)c5)cc4c32)CC1` [Compound 02-084, 8-(3,5-dichloro-4-hydroxyphenyl)-1-(trans-4-((dimethylamino)methyl)cyclohexyl)-3-methyl-1,3-dihydro-2H-imidazo[4,5-c]quinolin-2-one], 2.16 nM.
Still for that read-out and setting: the figure for `CN(C)C[C@H]1CC[C@H](N2C(=O)N(C)Cc3cnc4ccc(-c5cc(Cl)c(O)c(Cl)c5)cc4c32)CC1` [Compound 02-095, 9-(3,5-dichloro-4-hydroxyphenyl)-1-(trans-4-((dimethylamino)methyl)cyclohexyl)-3-methyl-3,4-dihydropyrimido[5,4-c]quinolin-2(1H)-one] is 27.1 nM; for `CN(C)C[C@H]1CC[C@H](N2C(=O)N(C)Cc3cnc4ccc(-c5cc(Cl)c(O)c(Cl)c5)nc4c32)CC1` [Compound 02-096] it is 2.8 nM.
As to `O=C(O)c1ccc(Nc2ncc3c(n2)-c2ccc(Cl)cc2C(c2c(F)cccc2F)=NC3)cc1` [MLN8054, reference compound], the “Electrophoretic mobility of mitotic MELK” value on MELK [2] is “does not alter the electrophoretic mobility of MELK”.
On the same count and under the same terms, the entry for `O=C1NC(=NCc2cccs2)S/C1=C\c1ccc2ncccc2c1` [RO-3306, reference compound] is “does not change the electrophoretic mobility of MELK”.
In the case of `Cc1cc(Nc2cc(N3CCN(C)CC3)nc(Sc3ccc(NC(=O)C4CC4)cc3)n2)n[nH]1` [VX-680, reference compound], in the experiment with Aurora kinases, the “Phosphorylation of Aurora kinases” value was “efficiently suppressed the auto-phosphorylation of Aurora kinases”. In addition, in experiment [3], the “Histone H3 phosphorylation at Thr3” value is reported as “inhibition of the downstream Histone H3 phosphorylation at Thr3”.
On to `CC(=O)O[C@H]1C(=O)[C@@]2(C)[C@H]([C@H](OC(=O)c3ccccc3)[C@]3(O)C[C@H](OC(=O)[C@H](O)[C@@H](NC(=O)c4ccccc4)c4ccccc4)C(C)=C1C3(C)C)[C@]1(OC(C)=O)CO[C@@H]1C[C@@H]2O` [paclitaxel, reference compound], for which the “Reduction of cell proliferation, paclitaxel alone” value in the experiment on MDA-MB-468 is on record as “half reduction”.

Source of the values: patent US10544138B2, “Tricyclic kinase inhibitors of MELK and methods of use” (Dana-Farber Cancer Institute, Inc., priority 2015, dated 2020).
